Test results from patent publication US20260183303A1, “PDK1 REGULATORY COMPOUND AND COMPOSITION CONTAINING THE SAME” (PROVIBIO CO., LTD., priority 2024, published 2026).

Tested on: T cells isolated from mouse spleens
Assay: T cell proliferation inhibition (CFSE flow cytometry, anti-CD3/anti-CD28 activation)
Format: cell-based, C57BL/6 mice
Details: mouse spleen T cells, CD3/CD28 activated, cultured three days
Description: To verify the T cell proliferation inhibitory effect of the compounds according to the present invention, the following experiment was performed based on flow cytometry analysis using carboxyfluorescein diacetate succinimidyl ester (CFSE), a fluorescent dye that binds to intracellular molecules via covalent bonds.
Spleens were extracted from 7-week-old C57BL/6 mice, ground, and then separated into single cells using a strainer ([…], SPL). Red blood cells were removed using ACK (Ammonium-Chloride-Potassium) lysis buffer to isolate white blood cells.
Finally, using a MACS Magnetic Stand and LS column, T cells were isolated from the spleen.
The T cells isolated from the spleen were resuspended in 1 mL of free medium (RPMI-1640+200 U/mL penicillin+200 μg/mL streptomycin), and 0.3 μL of CFSE (10 mM) was added. The mixture was incubated at 37° C. for 5 minutes.
Free medium (10 mL) was added to stop the reaction, and the cells were centrifuged to obtain the cell pellet.
RPMI 1640 medium containing 10% FBS, 100 U/mL penicillin, 100 μg/mL streptomycin, and resuspended the cells. The cells were then seeded into a 96-well plate at a density of 2×10^5 cells per well and activated with CD3 and CD28 antibodies ([…]) to activate T cells.
The compound diluted in DMSO was added at concentrations of 10 nM, 100 nM, 1 μM, […], 30 μM, and 50 µM, with three wells per concentration, and cultured at 37° C. and 5% CO2 for three days. The cells were then analyzed using a FACS Canto instrument.
The proliferation inhibition rate (%) was calculated using the following formula: […]

## CC(C)(C)OC(=O)N[C@@H]1CCCN(CCCCCCCCCCCCNC(=O)c2cccnc2N)C1 [Compound 117, tert-butyl-(R)-(1-(12-(2-aminonicotinamido)dodecyl)piperidin-3-yl)carbamate]
Mus musculus, T-cell, 72 h, 10 nM, read-out: Proliferation inhibition rate (%)
  inhibition at 0.01 µM: -15.8%
Mus musculus, T-cell, 72 h, 100 nM, read-out: Proliferation inhibition rate (%)
  inhibition at 0.1 µM: 100%
Mus musculus, T-cell, 72 h, 1 μM, read-out: Proliferation inhibition rate (%)
  inhibition at 1 µM: 100%
Mus musculus, T-cell, 72 h, 10 μM, read-out: Proliferation inhibition rate (%)
  inhibition at 10 µM: 100%
Mus musculus, T-cell, 72 h, 30 μM, read-out: Proliferation inhibition rate (%)
  inhibition at 30 µM: 100%
Mus musculus, T-cell, 72 h, 50 μM, read-out: Proliferation inhibition rate (%)
  inhibition at 50 µM: 100%

## COC1CCN(CCCCCCCCCCCCNC(=O)c2cccnc2N)C1 (centres unmarked) [Compound 32, 2-Amino-N-(12-(3-methoxypyrrolidin-1-yl)dodecyl) nicotinamide]
10 nM, listed as PBK-2024-024, 0.01 µM
  Proliferation inhibition rate (%): 0.29%
50 μM
  Proliferation inhibition rate (%): 100.00%

## CC1(C)CCN(CCCCCCCCCCCCNC(=O)c2cccnc2N)C1 [Compound 22, 2-Amino-N-(12-(3,3-dimethylpyrrolidin-1-yl)dodecyl) nicotinamide]
10 nM
  Proliferation inhibition rate (%): −0.80%
100 nM
  Proliferation inhibition rate (%): 100.00%
1 μM
  Proliferation inhibition rate (%): 100.00%
10 μM
  Proliferation inhibition rate (%): 100.00%
30 μM
  Proliferation inhibition rate (%): 100.00%
50 μM
  Proliferation inhibition rate (%): 100.00%

## CN(CCCCCCCCCCCCNC(=O)c1cccnc1N)C(C)(C)C [Compound 53, 2-Amino-N-(12-(tert-butyl(methyl)amino)dodecyl) nicotinamide]
100 nM
  Proliferation inhibition rate (%): 100.00%
1 μM
  Proliferation inhibition rate (%): 100.00%
10 μM
  Proliferation inhibition rate (%): 100.00%
30 μM
  Proliferation inhibition rate (%): 100.00%
50 μM
  Proliferation inhibition rate (%): 100.00%

## CC1CN(C)C(CCCCCCCCCCCCNc2ccc3cncnc3n2)N1 (centres unmarked) [Compound 43]
100 nM
  Proliferation inhibition rate (%): 100.00%
1 μM
  Proliferation inhibition rate (%): 100.00%
10 μM
  Proliferation inhibition rate (%): 100.00%
30 μM
  Proliferation inhibition rate (%): 100.00%
50 μM
  Proliferation inhibition rate (%): 100.00%

## Nc1ncccc1C(=O)NCCCCCCCCCCCCN1CCN(C(=O)C2CC2)CC1 [Compound 99, 2-amino-N-(12-(4-(cyclopropanecarbonyl)piperazin-1-yl)dodecyl) nicotinamide]
10 nM
  Proliferation inhibition rate (%): −12.13%
100 nM
  Proliferation inhibition rate (%): 100.00%
1 μM
  Proliferation inhibition rate (%): 100.00%
10 μM
  Proliferation inhibition rate (%): 100.00%
30 μM
  Proliferation inhibition rate (%): 100.00%
50 μM
  Proliferation inhibition rate (%): 100.00%

## Nc1ncccc1C(=O)NCCCCCCCCCCCCN1CC(F)(F)C1 [Compound 122, 2-Amino-N-(12-(3,3-difluoroazetidin-1-yl)dodecyl) nicotinamide]
10 nM
  Proliferation inhibition rate (%): 0.00%
100 nM
  Proliferation inhibition rate (%): 0.00%
1 μM
  Proliferation inhibition rate (%): 80.00%
10 μM
  Proliferation inhibition rate (%): 100.00%
30 μM
  Proliferation inhibition rate (%): 100.00%
50 μM
  Proliferation inhibition rate (%): 100.00%

## Nc1ncccc1C(=O)NCCCCCCCCCCCCN1CCN(CCO)CC1 [Compound 54, 2-Amino-N-(12-(4-(2-hydroxyethyl)piperazin-1-yl)dodecyl) nicotinamide]
100 nM
  Proliferation inhibition rate (%): 100.00%
1 μM
  Proliferation inhibition rate (%): 100.00%
10 μM
  Proliferation inhibition rate (%): 100.00%
30 μM
  Proliferation inhibition rate (%): 100.00%
50 μM
  Proliferation inhibition rate (%): 100.00%

## Nc1ncccc1C(=O)NCCCCCCCCCCCCN1CCOC1=O [Compound 127, 2-amino-N-(12-(2-oxooxazolidin-3-yl)dodecyl) nicotinamide]
10 μM
  Proliferation inhibition rate (%): 100.00%
30 μM
  Proliferation inhibition rate (%): 100.00%
50 μM
  Proliferation inhibition rate (%): 100.00%

## CC(C)(C)OC(=O)N1CCN(CCCCCCCCCCCCNC(=O)c2cccnc2N)CC1 [Compound 111, tert-butyl-4-(12-(2-aminonicotinamido)dodecyl) piperazine-1-carboxylate]
10 nM
  Proliferation inhibition rate (%): 0.00%
100 nM
  Proliferation inhibition rate (%): 100.00%
1 μM
  Proliferation inhibition rate (%): 100.00%
10 μM
  Proliferation inhibition rate (%): 100.00%
30 μM
  Proliferation inhibition rate (%): 100.00%
50 μM
  Proliferation inhibition rate (%): 100.00%
